Patent US20130210633A1, “METHOD FOR REDUCING WATER STRESS IN PLANTS” (SUMITOMO CHEMICAL COMPANY, LIMITED, priority 2010, published 2013)
Structures can show the parent of a compound that is named as a salt.

Tested on: rice (cultivar: Nipponbare)
Experiment: Evaluation test for reduction of drought stress by rice seed treatment (plant weight)
Type: in vivo
Conditions: with drought stress conditions; for Ratio to non-treated group: fresh weight of above-ground part; for Fresh weight of the above-ground part: seed treatment, average of 3 repetitions
Procedure: Evaluation Test for Reduction of Drought Stress by Rice Seed Treatment (Plant Weight) A Blank slurry solution containing 5% (V/V) color coat red (Becker Underwood, Inc.), 5% (V/V) CF-Clear (Becker Underwood, Inc.) and 0.4% Maxim XL (Syngenta) was prepared. A sodium salt of the compound “A” was dissolved in the Blank slurry to obtain a slurry solution containing the sodium salt of the compound “A” in a concentration of 333 to 10,000 ppm. In a 50-ml centrifuge tube made of a plastic, 300 μl of the above slurry solution was added to 10 g of rice seeds (cultivar: Nipponbare), followed by stirring for 3 to 5 minutes and further drying of the seeds. As a control, seeds treated by using the Blank slurry in place of the above slurry solution were used as seeds for a non-treated group. On wells of a 406-well plug plate, a filter paper was placed and rice seeds subjected to the above seed treatment were sown on the filter paper. Using a two-fold diluted Kimura B water culture solution (Plant Science 119: 39-47 (1996)), cultivation was performed for 14 days under the conditions of a temperature of 28° C./23° C. (day/night), an illuminance of 8,500 1× and a day length of 12 hours to obtain test plants. Test plants (each 5 seedlings) were placed in an empty 35 ml flat-bottomed test tube ([…]/manufactured by Sarstedt) and then left to stand for 2 days without being capped (this was used as a test group with the drought stress conditions). As a test group without the drought stress conditions, the test plants (each 5 seedlings) were placed in a centrifuge tube filled with 10 ml of a two-fold diluted Kimura B water culture solution, and then left to stand for 2 days without being capped. After that, the plants (each 5 seedlings) were transplanted to a plastic pot (N-71-130G, manufactured by TOKAN KOGYO CO., LTD.) filled with the field soil which had been subjected to a sterilization treatment and then cultivated for 14 days under the conditions of a temperature of 28° C./23° C. (day/night), an illuminance of 8,500 1× and a day length of 12 hours while performing bottom-surface irrigation. After the drought stress treatment, the fresh weight of the above-ground part of the five individuals of test plants in each test group was collectively measured and an average of 3 repetitions of each test group was determined. As a result, the fresh weight of the above-ground part of the test group in the present invention was apparently large as compared with the control and drought stress was reduced.

O=C(O)CCC(=O)NCCc1ccccc1 [Compound A, Na salt, 4-oxo-4-(2-phenylethyl)aminobutyric acid]
Ratio to non-treated group (0.01 mg/g of seeds): 105%
Ratio to non-treated group (0.1 mg/g of seeds): 105%
Ratio to non-treated group (0.25 mg/g of seeds): 119%
Ratio to non-treated group (0.3 mg/g of seeds): 121%
Fresh weight of the above-ground part (amount of chemical 0.01 mg/g of seeds): 0.73 g/5 seedlings
Fresh weight of the above-ground part (amount of chemical 0.1 mg/g of seeds): 0.73 g/5 seedlings
Fresh weight of the above-ground part (amount of chemical 0.25 mg/g of seeds): 0.83 g/5 seedlings
Fresh weight of the above-ground part (amount of chemical 0.3 mg/g of seeds): 0.84 g/5 seedlings
